# “And” between values parts separate entries of the source, which are not always exact repeats. Identical values can stand only once.
# How the values were obtained:
# Format in all cases: cell-based
# [1] = tested on: Pseudomonas aeruginosa bacteria; assay: in vitro study of keratitis treatments, petri dish quadrants scanned with laser beam; details: dose approx. 4.5 J/cm^2, irradiance approx. 9 mW/cm^2, ambient air, approx. 70 hours after exposure
# Excerpt: FIG. 13 illustrates an example system 300 for an in vitro study of keratitis treatments. The system 300 includes an illumination system 320 that emits a laser beam that can be scanned across a petri dish containing a sample. The system 300 also includes a UV window 350 that can be selectively employed to transmit UV light in the study. Additionally, the system 300 includes a holder 360 that holds the petri dish. The holder 360 includes tubing to receive and deliver a concentration of O2 to some samples in the study. Furthermore, the system 300 includes a micrometer 370 to determine the position of the holder 360 and thus the petri dish along a vertical axis (z-axis) relative to the illumination system 320.
# FIG. 14A illustrates a petri dish with an example sample 30 for the in vitro study of keratitis treatments employing the system 300. The preparation of the sample 30 involves inoculation with Pseudomonas aeruginosa bacteria (which causes keratitis) and incubation for approximately 48 hours. The resulting bacterial growth in the sample 30 is visible in FIG. 14A. The sample 30 is divided into four quadrants 30a-d to mark areas of the bacterial growth that are exposed to different conditions.
# FIG. 14B illustrates the delivery of the laser beam from the illumination system 320 to selected quadrants of the sample 30. As shown, the laser beam is scanning the second quadrant 30b. […]
# [2] = tested on: Pseudomonas aeruginosa; assay: riboflavin/UVA laser treatment under hyperoxic conditions, CFU counting (procedure 2220); details: for average cell death percentage / CFU: UVA laser, hyperoxic
# Protocol: According to an example procedure 2220 shown in FIG. 22B, a dilution factor is determined for Pseudomonas aeruginosa bacteria in step 2220a, and the Pseudomonas aeruginosa is loaded into wells in cell culture plate (e.g., a 96-well plate) in step 2220b. […] In particular, a laser beam of UVA light can be applied with a size of approximately 6.5 mm at 8 Hz. A petri dish is inoculated with the mixture from the wells in step 2220e, and the petri dish is incubated (e.g., overnight) in step 2220f. After incubation, the effect of the treatment parameters is evaluated by counting CFU in step 2220g.
# [3] = tested on: bacterial growth; assay: riboflavin solution without photoactivation, bacterial growth
# Excerpt: Studies by the present inventors indicate that the antimicrobial effect depends on UV dose and power.
# [4] = tested on: Pseudomonas aeruginosa; assay: riboflavin/UVA laser treatment under normoxic conditions, CFU counting (procedure 2210); details: UVA laser
# Protocol: According to an example procedure 2210 shown in FIG. 22A, a dilution factor is determined for Pseudomonas aeruginosa bacteria in step 2210a, and the Pseudomonas aeruginosa is loaded into wells in cell culture plate (e.g., a 96-well plate) in step 2210b. […] In particular, a laser beam of ultraviolet A (UVA) light can be applied with a size of approximately 6.5 mm at 8 Hz. A petri dish is inoculated with the mixture from the wells in step 2210e and incubated (e.g., overnight) in step 2210f. After incubation, the effect of the particular treatment parameters is evaluated by counting colony forming units (CFU) in step 2210g.
# [5] = tested on: Pseudomonas aeruginosa; assay: riboflavin/UVA LED treatment under normoxic conditions, CFU counting (procedure 2230); details: 0.1% riboflavin, UVA LED
# Protocol: According to an example procedure 2230 shown in FIG. 23C, a dilution factor is determined for Pseudomonas aeruginosa bacteria in step 2230a, and the Pseudomonas aeruginosa is loaded into wells in cell culture plate (e.g., a 96-well plate) in step 2230b. […] For example, the LED light source may emit UVA light at a size of approximately 6.5 mm. A petri dish is inoculated with the mixture from the wells in step 2230e, and the petri dish is incubated (e.g., overnight) in step 2230f. After incubation, the effect of the treatment parameters is evaluated by counting CFU in step 2230g.
# [6] = 0.1% riboflavin, 2.5 mW/cm^2, 2.5 J/cm^2, n=3
# [7] = 0.1% riboflavin, 40 mW/cm^2, 40 J/cm^2, n=3
# [8] = 0.1% riboflavin, irradiance 2.5 mW/cm^2, dose 2.5 J/cm^2, replicates 1-3
# [9] = 0.1% riboflavin, irradiance 40 mW/cm^2, dose 40 J/cm^2, replicates 1-3
smiles,measurement,setting,value
Cc1cc2nc3c(=O)[nH]c(=O)nc-3n(C[C@H](O)[C@H](O)[C@H](O)CO)c2cc1C [riboflavin],bacteria in quadrants that received riboflavin and photoactivating UV light,[1],effectively eliminated
same,average cell death percentage,[2]; [6],16.1%
same,average cell death percentage,[2]; [7],82.7%
same,CFU,[2]; [8],52 CFU and 34 CFU and 12 CFU
same,CFU,[2]; [9],9 CFU and 14 CFU and 4 CFU
same,average cell death percentage,"[2]; 0.2% riboflavin, 20 mW/cm^2, 20 J/cm^2, n=3",58.9%
same,average cell death percentage,"[2]; 0.2% riboflavin, 40 mW/cm^2, 20 J/cm^2, n=3",38.1%
same,CFU,"[2]; 0.2% riboflavin, irradiance 2.5 mW/cm^2, dose 2.5 J/cm^2, replicates 1-3",140 CFU and 101 CFU and 114 CFU
same,CFU,"[2]; 0.2% riboflavin, irradiance 40 mW/cm^2, dose 20 J/cm^2, replicates 1-3",78 CFU and 63 CFU and 77 CFU
same,average cell death percentage,"[2]; 0.22% riboflavin, 2.5 mW/cm^2, 2.5 J/cm^2, n=3",13.9%
same,average cell death percentage,"[2]; 0.22% riboflavin, 40 mW/cm^2, 40 J/cm^2, n=3",76.9%
same,CFU,"[2]; 0.22% riboflavin, irradiance 2.5 mW/cm^2, dose 2.5 J/cm^2, replicates 1-3",218 CFU and 187 CFU and 191 CFU
same,CFU,"[2]; 0.22% riboflavin, irradiance 40 mW/cm^2, dose 40 J/cm^2, replicates 1-3",56 CFU and 83 CFU and 33 CFU
same,effect of supplemental oxygen on bacterial death,[2]; riboflavin photoactivated with a scanning laser,does create additional bacterial death
same,effect of riboflavin solution on its own on bacterial growth,[3],does not directly inhibit bacterial growth
same,average cell death percentage,[4]; [6],29.0%
same,average cell death percentage,[4]; [7],67.1%
same,CFU,[4]; [8],82 CFU and 91 CFU (2×)
same,CFU,[4]; [9],21 CFU and 32 CFU and 61 CFU
same,average cell death percentage,"[4]; 0.5% riboflavin, 2.5 mW/cm^2, 2.5 J/cm^2, n=3",−55.4%
same,average cell death percentage,"[4]; 0.5% riboflavin, 40 mW/cm^2, 40 J/cm^2, n=3",26.0%
same,CFU,"[4]; 0.5% riboflavin, irradiance 2.5 mW/cm^2, dose 2.5 J/cm^2, replicates 1-3",86 CFU (2×) and 51 CFU
same,CFU,"[4]; 0.5% riboflavin, irradiance 40 mW/cm^2, dose 40 J/cm^2, replicates 1-3",37 CFU (2×) and 35 CFU
same,average cell death percentage,"[5]; 8.6 mW/cm^2, 8.6 J/cm^2, n=3",-9.3%
same,average cell death percentage,"[5]; 75 mW/cm^2, 75 J/cm^2, n=3",73.6%
same,CFU,"[5]; irradiance 8.6 mW/cm^2, dose 8.6 J/cm^2, replicates 1-3",156 CFU and 94 CFU and 124 CFU
same,CFU,"[5]; irradiance 75 mW/cm^2, dose 75 J/cm^2, replicates 1-3",26 CFU and 29 CFU and 35 CFU
